Measurements from paper PMC10870435, “A novel complement C3 inhibitor CP40-KK protects against experimental pulmonary arterial hypertension via an inflammasome NLRP3 associated pathway” (Journal of Translational Medicine, 2024).

How the values were obtained:
RAW264.7 cells = assay: RAW264.7 macrophages, western blot of NLRP3 pathway after C3a; assay type: cell-based; conditions: n = 3 per group
Description: (§1) RAW264.7 cells were provided by the Hubei Key Laboratory of Genetics and Molecular Mechanism of Cardiologic Disorders, Huazhong University of Science and Technology (China), and cultured in DMEM containing 10% fetal bovine serum at 37 ℃ and 5% CO2. RAW264.7 cells were incubated with 50 nM C3a for 12 h and then were washed twice with PBS. The cells were incubated with serum-free DMEM for 12 h and the supernatants were collected. After pretreatment with 100 ng/ml of IL-1RA for 1 h, we added the supernatants from the control or C3a group to PASMCs respectively for 24 h.
Proteins were collected from the fresh frozen-rat lung tissues using RIPA lysis buffer. Protein concentration was quantified using a BCA reagent. Equal amounts of protein were electrophoretically separated on 10% SDS polyacrylamide gel, transferred to PVDF membranes, and probed with desired primary antibodies overnight at 4 °C. Membranes were then washed with TBST and incubated with anti-mouse IgG (1:5000) or anti-rabbit IgG (1:5000) horseradish peroxidase conjugated antibodies as indicated. Blots were developed with the enhanced chemiluminescence system. To compare and quantify levels of proteins, the density of each band was measured using Image J software. Equal loading for total cell or tissue lysates was determined by β-Actin western blot.

[1] = system: MCT-induced rat PAH model; assay: MCT-induced rat PAH model: hemodynamics, RV hypertrophy, vessel morphology; assay type: in vivo; conditions: single i.p. injection 40 mg/kg; control group 28.00 ± 3.55 mmHg; mean ± SEM; n = 6 per group; SEM
Description: In the current study, two animal experiments were conducted successively. 30 rats were randomly divided into two groups (control group and MCT group, n = 15 per group) in the first experiment. MCT group rats received a single intraperitoneally injection of MCT (40 mg/kg) on day 1 to induce PAH while control group rats received an equivoluminal saline injection intraperitoneally. For the second animal experiment, the rats were assigned into four groups (control group, MCT group, CP40-KK group, and MCT + CP40-KK group, n = 15 per group). The control group was given the same volume of saline subcutaneously while the CP40-KK group rats only received CP40-KK (2 mg/kg) by subcutaneous injection from day 15 to day 28 continuously. The rats in the MCT group and MCT + CP40-KK group were received a single intraperitoneally injection of MCT (40 mg/kg) on day 1 and subcutaneously injected with either an equal volume of saline or CP40-KK (2 mg/kg) at day 15 to day 28 continuously. The dose selection of MCT and CP40-KK in our study was established based on previous studies.
Four weeks after the MCT injection, the experimental rats were weighed and anesthetized by intraperitoneal injecting pentobarbital sodium (40 mg/kg). After being anesthetized, rats were fixed in the supine position. A 3F polyethylene catheter filling with heparin was introduced into the right ventricle (RV) through the right jugular vein and the right atrium. Right ventricle systolic pressure (RVSP) was assessed by a pressure transducer and PowerLab system (AD Instruments, Australia). Pressure recordings were measured over a 2 min period and analyzed with Powerlab Pro Software (AD Instruments, Australia). After the hemodynamic study, the rats were euthanized by an overdose of anesthesia, and their lungs and hearts were dissected for further evaluation. The dry weights of the RV and left ventricle (LV) + septum were measured to calculate the RV/(LV + S) ratio and the RV / body weight (RV/BW). The left lung was fixed in 4% paraformaldehyde, and the right lung was snap-frozen in liquid nitrogen and stored at − 80 °C for further analysis.
Fixed lung samples were further fixed in 4% buffered paraformaldehyde for 24 h, embedded in paraffin, and processed for sectioning at 5 μm thick. Hematoxylin and eosin (H&E) staining were performed on paraffin-fixed lung tissue slides. The percent medial wall thickness (WT%) and percent medial wall area (WA%) were used to assess the extent of pulmonary vascular remodeling. WT% = (external diameter − internal diameter)/(external diameter) × 100%; WA% = (external area − internal area)/external area × 100%. All data were obtained and analyzed in a blinded manner.

[2] = system: primary rat pulmonary arterial smooth muscle cells (PASMCs); assay: PASMC proliferation with macrophage supernatant (EdU assay, western blot); assay type: cell-based; conditions: 24 h, n = 3 per group
Description: PASMCs were isolated from rat distal pulmonary arteries and then cultured in Dulbecco’s modified Eagle’s medium (DMEM) containing 20% fetal bovine serum as previously described.
Cells seeded in the 24-well plate were labeled with 10 μmol/L of EdU (Meilun, Dalian, China) for 2 h at 37 ℃. Subsequently, cells were fixed in 4% of paraformaldehyde for 20 min and incubated in phosphate-buffered saline (PBS) containing 0.5% of Triton- X100 for 15 min. After being washed three times with PBS, 150 μL of dying solution was applied per well for 30 min and nuclei staining with Hoechst 33,342 for 10 min away from light. The proliferating cells were labeled with green fluorescence, with a maximum excitation wavelength of 491 nm and a maximum emission wavelength of 518 nm for 488-Azide. The proliferative rate = EdU-positive cells/Hoechst-positive cells.
as §1, with “After pretreatment with 100 ng/ml of IL-1RA for 1 h, we added the supernatants from the control or C3a group to PASMCs respectively for 24 h.” left out

C3 = conditions: cited from earlier work
From the text: The selective C3 inhibitor CP40 has been found therapeutically effective in various diseases, but has yet not been tested in the PAH model. In the current study, we applied the newly identified CP40 analog, CP40-KK, with two more lysine attached to the C terminus, in the MCT-induced PAH rat model.

C3a: complement anaphylatoxin C3a protein used at 50 nM to stimulate macrophages
cleaved-IL1β production by macrophages (RAW264.7 cells; RAW264.7, C3a 50 nM): stimulated macrophages to produce cleaved-IL1β

C[C@H]1C(=O)O[C@@H]2CCN3CC=C(COC(=O)[C@](C)(O)[C@]1(C)O)[C@H]23 [MCT, Monocrotaline, reference compound]
RVSP after 4 weeks of MCT treatment [1]: 63.03 ± 4.19 mmHg

NC(N)=NCCC[C@H](NC(=O)COCC(c1ccccc1)c1ccccc1)C(=O)O.O=C(O)C(F)(F)F [C3aRa, SB290157 trifluoroacetate, reference compound]
cellular levels of NLRP3, cleaved-caspase-1, cleaved-IL1β and IL18 (RAW264.7 cells; RAW264.7 treated with C3a (50 nM), 1 mM C3aRa): reduced

IL-1RA: IL-1RA protein reagent (MedChemExpress HY-P72566), 100 ng/ml pretreatment of PASMCs
PCNA and Cyclin D1 expression in PASMCs ([2]; C3a-supernatant + IL-1RA vs C3a-supernatant + PBS, western blot): decreased | number of EdU-positive PASMCs increased by macrophage-conditioned media ([2]; C3a-supernatant, 100 ng/ml IL-1RA pretreatment 1 h): reversed

CC[C@H](C)[C@H](N)C(=O)N[C@H]1CSSC[C@@H](C(=O)N[C@H](C(N)=O)[C@@H](C)O)NC(=O)[C@H](CCCNC(=N)N)NC(=O)[C@H](Cc2c[nH]cn2)NC(=O)[C@H](Cc2c[nH]cn2)NC(=O)CNC(=O)[C@H](Cc2c[nH]c3ccccc23)NC(=O)[C@H](CC(=O)O)NC(=O)[C@H](CCC(N)=O)NC(=O)[C@H](C(C)C)NC(=O)[C@H](C(C)C)NC1=O [compstatin]
species specificity of C3 binding (C3): can bind only primates but not rodent C3
